Here are results for 8 compounds from ChEMBL document CHEMBL1140575, “Xanthones from Cudrania tricuspidata displaying potent alpha-glucosidase inhibition” (Bioorg Med Chem Lett, 2007).

Where only a bound is given, the exact number is not on record here.

A short description of the assay: Inhibition of bakers yeast alpha-glucosidase by spectrophotometry. More on the design: species or system Saccharomyces cerevisiae.

Broadly, the IC50 is the concentration at which inhibition is half-maximal. Read a low IC50 as inhibition by little substance.

`C=CC(C)(C)c1c(O)cc2oc3cc(O)c(O)c(CC=C(C)C)c3c(=O)c2c1O` showed an IC50 of 35.8 µM.

As for `CC(C)=CCc1c2c(c(O)c3c(=O)c4cc(O)c(O)cc4oc13)C(C)(C)C(C)O2` (stereo not drawn), the IC50 turned out to be 32 µM.

Compound `C=CC(C)(C)c1c(O)cc(O)c2c(=O)c3cc(O)c4c(c3oc12)C=CC(C)(C)O4` displayed an IC50 of 24.9 µM.

In the case of `C=CC(C)(C)c1c(O)cc(O)c2c(=O)c3c(CC=C(C)C)c(O)c(O)cc3oc12` [CUDRATRICUSXANTHONE A], half-maximal inhibition (IC50) was put at 37.7 µM.

Turning to `C=CC(C)(C)c1c(OC)cc(O)c2c(=O)c3c(CC=C(C)C)c(O)c(O)cc3oc12` [CUDRAXANTHONE D], the IC50 worked out at 16.2 µM.

Turning to `C=CC(C)(C)c1c(O)cc2oc3c(CC=C(C)C)c(O)c(O)cc3c(=O)c2c1O` [CUDRAXANTHONE L], the IC50 was found to be 52.9 µM.

In the case of `CC(C)=CCc1c(O)c(O)cc2c(=O)c3c(O)c4c(cc3oc12)OC(C)C4(C)C` (stereo not drawn) [CUDRAXANTHONE M], the IC50 is greater than 100 µM.

In the case of `C=CC(C)(C)c1c(O)c(CC=C(C)C)c2oc3cc(O)c(O)cc3c(=O)c2c1O` [MACLURAXANTHONE B], the IC50 is 38.2 µM.
